Source: US11584747B2, “Substituted pyridopyrimidinonyl compounds useful as T cell activators” (BRISTOL-MYERS SQUIBB COMPANY, priority 2019, dated 2023)
pEC50, pIC50: −log10 of the molar value. Read-outs that look alike come from different tables or passages of the source.

How the values were obtained:
human DGKζ = human DGKζ (Homo sapiens (Human), UniProt Q13574); assay: DGKζ LIPGLO assay (extruded liposome substrate, ADP-Glo luminescence); type: biochemical
human DGKα = human DGKα (Homo sapiens (Human), UniProt P23743); assay: DGKα ADPGLO assay (detergent/lipid micelle substrate); type: biochemical
human DGKα, sequence (P23743 whole entry, looked up, the tested form may be a part): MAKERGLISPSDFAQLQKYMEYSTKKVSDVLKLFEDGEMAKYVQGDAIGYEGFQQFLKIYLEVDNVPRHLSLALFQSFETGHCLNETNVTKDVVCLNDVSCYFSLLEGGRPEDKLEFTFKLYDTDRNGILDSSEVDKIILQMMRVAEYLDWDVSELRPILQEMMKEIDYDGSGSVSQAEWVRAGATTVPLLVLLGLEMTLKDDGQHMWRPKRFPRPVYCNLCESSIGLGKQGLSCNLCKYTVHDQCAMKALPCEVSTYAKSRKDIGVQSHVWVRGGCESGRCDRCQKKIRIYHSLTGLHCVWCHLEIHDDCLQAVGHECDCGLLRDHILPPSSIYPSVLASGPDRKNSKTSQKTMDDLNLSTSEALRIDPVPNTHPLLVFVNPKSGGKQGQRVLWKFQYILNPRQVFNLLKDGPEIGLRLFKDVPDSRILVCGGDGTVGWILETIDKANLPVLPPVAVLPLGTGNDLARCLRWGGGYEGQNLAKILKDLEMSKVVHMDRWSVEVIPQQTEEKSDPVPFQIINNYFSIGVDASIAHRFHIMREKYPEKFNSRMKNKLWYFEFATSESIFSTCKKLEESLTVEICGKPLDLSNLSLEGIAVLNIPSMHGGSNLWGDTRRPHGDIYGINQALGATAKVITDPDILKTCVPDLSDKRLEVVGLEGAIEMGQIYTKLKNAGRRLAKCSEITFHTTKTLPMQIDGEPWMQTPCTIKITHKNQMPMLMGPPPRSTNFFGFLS
Method: DGK Alpha ADPGLO (Truncated) IC50 (uM)
The detergent/lipid micelle was prepared by combining 15 g phosphatidylserine (Avanti 840035P) and 1 g diacylglycerol (8008110) and dissolving into 150 mL chloroform in a 2 L round bottom flask. Chloroform was removed under high vacuum by rotary evaporation. […] The lipid/detergent solution was split into 5 mL aliquots and stored at −80° C.

[1] = system: human venous whole blood (IFN-γ); assay: Human whole blood IFN-γ assay; type: cell-based
Method: Human venous whole blood (22.5 μL per well), obtained from healthy donors, was pre-treated with compounds for one hour at 37° C. in a humidified 95% air/5% CO2 incubator. The blood was stimulated with 2.5 μL anti-human CD3 and anti-CD28 mAb at a final concentration of 1 μg/mL each for 24 hours at 37° C. IFN-γ in the supernatants was measured using AlphLISA kit (Cat #AL217).

[2] = liposome (LIPGLO) assay, read-out: DGK zeta (liposome assay) IC50
[3] = ADPGLO assay, read-out: DGK alpha ADPGLO IC50
[4] = liposome assay, read-out: DGK zeta LIPGLO IC50
[5] = truncated DGK alpha, read-out: DGK alpha ADPGLO (Truncated) IC50
[6] = Homo sapiens, 24 h, human whole blood, anti-CD3 plus anti-CD28 stimulation, 24 hours, read-out: IFN-γ Whole Blood EC50
[7] = Homo sapiens, whole blood, normalized to 3 μM reference compound as 100% activation, read-out: IFN-γ Whole Blood Normalized EC50
[8] = whole blood, normalized to 3 μM reference compound as 100% activation, read-out: IFN-γ Whole Blood Normalized EC50

human DGKζ, sequence (Q13574 other isoform, or with tags, fused parts or gaps): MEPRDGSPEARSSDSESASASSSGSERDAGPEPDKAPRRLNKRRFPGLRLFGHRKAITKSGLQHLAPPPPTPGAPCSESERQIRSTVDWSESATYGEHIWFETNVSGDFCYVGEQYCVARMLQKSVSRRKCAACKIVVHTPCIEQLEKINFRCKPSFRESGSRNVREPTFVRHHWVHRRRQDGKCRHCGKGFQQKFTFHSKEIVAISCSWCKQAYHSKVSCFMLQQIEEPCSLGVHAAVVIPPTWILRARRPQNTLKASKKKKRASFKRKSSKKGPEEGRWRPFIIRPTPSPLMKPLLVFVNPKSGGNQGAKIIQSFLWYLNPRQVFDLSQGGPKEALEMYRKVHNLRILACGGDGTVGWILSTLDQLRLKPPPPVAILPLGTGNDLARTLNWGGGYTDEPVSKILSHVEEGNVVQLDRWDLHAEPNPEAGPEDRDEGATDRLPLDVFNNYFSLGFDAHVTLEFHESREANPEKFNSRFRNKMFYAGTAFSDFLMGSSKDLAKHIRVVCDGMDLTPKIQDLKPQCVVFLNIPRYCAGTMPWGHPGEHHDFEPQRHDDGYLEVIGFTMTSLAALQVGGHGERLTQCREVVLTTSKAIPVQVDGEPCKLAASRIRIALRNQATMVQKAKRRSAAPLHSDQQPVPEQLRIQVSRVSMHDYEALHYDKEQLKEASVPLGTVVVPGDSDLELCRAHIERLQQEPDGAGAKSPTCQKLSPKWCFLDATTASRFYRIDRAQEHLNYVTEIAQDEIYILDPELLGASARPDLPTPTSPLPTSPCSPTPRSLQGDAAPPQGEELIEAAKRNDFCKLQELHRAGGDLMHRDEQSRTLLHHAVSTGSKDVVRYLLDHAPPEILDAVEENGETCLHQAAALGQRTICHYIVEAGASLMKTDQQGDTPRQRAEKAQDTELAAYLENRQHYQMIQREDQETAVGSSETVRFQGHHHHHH

Work on CCC(C1CC(F)(F)C1)N1C[C@H](C)N(c2nc(=O)n(C)c3ccc(C#N)nc23)C[C@H]1C (stereo partly drawn) [Example 456, 4-((2S,5R)-4-(1-(3,3-difluorocyclobutyl)propyl)-2,5-dimethylpiperazin-1-yl)-1-methyl-2-oxo-1,2-dihydropyrido[3,2-d]pyrimidine-6-carbonitrile] yielded a pIC50 (human DGKζ; [2]) of 4.92 and a pIC50 (human DGKα; [3]) of 4.99.
For CCC(C1CC1)N1C[C@H](C)N(c2nc(=O)n(C)c3ccc(C#N)nc23)C[C@H]1C (stereo partly drawn) [Example 453, 4-((2S,5R)-4-(1-cyclopropylpropyl)-2,5-dimethylpiperazin-1-yl)-1-methyl-2-oxo-1,2-dihydropyrido[3,2-d]pyrimidine-6-carbonitrile], the pIC50 (human DGKζ; [2]) was 4.10 and the pIC50 (human DGKα; [3]) was 3.67.
In the case of CCC(c1ccc(C2CC2)cc1)N1C[C@H](C)N(c2nc(=O)n(C)c3ccc(C#N)nc23)C[C@H]1CC (stereo partly drawn) [Example 301, 4-((2S,5R)-4-(1-(4-cyclopropylphenyl)propyl)-5-ethyl-2-methylpiperazin-1-yl)-1-methyl-2-oxo-1,2-dihydropyrido[3,2-d]pyrimidine-6-carbonitrile], the pIC50 (human DGKζ; [4]) was 6.37 and the pIC50 (human DGKα; [5]) was 6.89.
CCC(c1ccc(C2CC2)cc1F)N1C[C@H](C)N(c2nc(=O)n(C)c3ccc(C#N)nc23)C[C@H]1C (stereo partly drawn) [Example 380, 4-((2S,5R)-4-(1-(4-cyclopropyl-2-fluorophenyl)propyl)-2,5-dimethylpiperazin-1-yl)-1-methyl-2-oxo-1,2-dihydropyrido[3,2-d]pyrimidine-6-carbonitrile] gave a pIC50 (human DGKζ; [2]) of 6.74 and a pIC50 (human DGKα; [3]) of 7.54.
CC[C@H]1CN(C(C)c2ccc(CN3CCCCC3)cc2)[C@H](CC)CN1c1nc(=O)n(C)c2ccc(C#N)nc12 (stereo partly drawn) [Example 282, 4-((2S,5R)-2,5-diethyl-4-(1-(4-(piperidin-1-ylmethyl)phenyl)ethyl)piperazin-1-yl)-1-methyl-2-oxo-1,2-dihydropyrido[3,2-d]pyrimidine-6-carbonitrile] gave a pIC50 (human DGKζ; [4]) of 5.94 and a pIC50 (human DGKα; [5]) of 6.82.
CCC(c1ccc(Br)cc1)N1C[C@H](C)N(c2nc(=O)n(C)c3ccc(C#N)nc23)C[C@H]1CC (stereo partly drawn) [Example 322, 4-((2 S,5R)-4-(1-(4-bromophenyl)propyl)-5-ethyl-2-methylpiperazin-1-yl)-1-methyl-2-oxo-1,2-dihydropyrido[3,2-d]pyrimidine-6-carbonitrile] gave a pIC50 (human DGKζ; [2]) of 6.12 and a pIC50 (human DGKα; [3]) of 8.15.
In the case of CC[C@H]1CN(C(C)c2ccc(C(F)(F)F)cc2)[C@H](CC)CN1c1nc(=O)n(C)c2ccc(OC)nc12 (single isomer, unassigned) [Example 428], the pEC50 [1, 6] was 4.70 and the pIC50 (human DGKζ; [2]) was 3.90.
In the case of CCC(c1ccc(Br)cc1)N1C[C@H](C)N(c2nc(=O)n(C)c3ccc(C#N)nc23)C[C@H]1CC (stereo partly drawn) [Example 321, 4-((2 S,5R)-4-(1-(4-bromophenyl)propyl)-5-ethyl-2-methylpiperazin-1-yl)-1-methyl-2-oxo-1,2-dihydropyrido[3,2-d]pyrimidine-6-carbonitrile], the pIC50 (human DGKζ; [2]) was 7.42 and the pIC50 (human DGKα; [3]) was 8.00.
For CC[C@H]1CN(C(C)c2ccc(CN3CCN(C)C(=O)C3)cc2)[C@H](CC)CN1c1nc(=O)n(C)c2ccc(C#N)nc12 (stereo partly drawn) [Example 287, 4-((2S,5R)-2,5-diethyl-4-(1-(4-((4-methyl-3-oxopiperazin-1-yl)methyl)phenyl)ethyl)piperazin-1-yl)-1-methyl-2-oxo-1,2-dihydropyrido[3,2-d]pyrimidine-6-carbonitrile], the pIC50 (human DGKζ; [4]) was 6.30 and the pIC50 (human DGKα; [5]) was 6.68.
CCC(C1CC(F)(F)C1)N1C[C@H](C)N(c2nc(=O)n(C)c3ccc(C#N)nc23)C[C@H]1C (stereo partly drawn) [Example 457, 4-((2S,5R)-4-(1-(3,3-difluorocyclobutyl)propyl)-2,5-dimethylpiperazin-1-yl)-1-methyl-2-oxo-1,2-dihydropyrido[3,2-d]pyrimidine-6-carbonitrile] was tested, and the pIC50 (human DGKζ; [2]) was 5.98 and the pIC50 (human DGKα; [3]) was 5.40.
Compound CCC[C@@H]1CN(c2nc(=O)n(C)c3ccc(C#N)nc23)[C@@H](C)CN1C(C)c1ccc(C(F)(F)F)cc1 (single isomer, unassigned) [Example 396] has a pIC50 (human DGKα; [3]) of 6.04.
CC[C@H]1CN(C(C)c2ccc(C3(C)CC3)cc2)[C@H](CC)CN1c1nc(=O)n(C)c2ccc(C#N)nc12 (stereo partly drawn) [Example 218, 4-((2S,5R)-2,5-diethyl-4-(1-(4-(1-methylcyclopropyl)phenyl)ethyl)piperazin-1-yl)-1-methyl-2-oxo-1,2-dihydropyrido[3,2-d]pyrimidine-6-carbonitrile] was tested, and the pIC50 (human DGKζ; [4]) was 7.74 and the pIC50 (human DGKα; [5]) was 7.11.
CC[C@@H]1CN(c2nc(=O)n(C)c3ccc(C(F)F)nc23)[C@@H](C)CN1C(C)c1ccc(C(F)(F)F)cc1 (stereo partly drawn) [Example 442, 6-(difluoromethyl)-4-((2S,5R)-5-ethyl-2-methyl-4-(1-(4-(trifluoromethyl)phenyl)ethyl)piperazin-1-yl)-1-methylpyrido[3,2-d]pyrimidin-2(1H)-one] was tested, and the pIC50 (human DGKζ; [2]) was 6.04 and the pIC50 (human DGKα; [3]) was 6.55.
CCOC(=O)[C@H]1C[C@@H]1Oc1ccc(C(C)N2C[C@H](CC)N(c3nc(=O)n(C)c4ccc(C#N)nc34)C[C@H]2CC)cc1 (stereo partly drawn) [Example 260, ethyl (1S,2S)-2-(4-(1-((2R,5S)-4-(6-cyano-1-methyl-2-oxo-1,2-dihydropyrido[3,2-d]pyrimidin-4-yl)-2,5-diethylpiperazin-1-yl)ethyl)phenoxy)cyclopropane-1-carboxylate] gave a pIC50 (human DGKζ; [4]) of 5.52.
In the case of CC[C@H]1CN(C(C)c2ccc(C3(C#N)CC3)cc2)[C@H](CC)CN1c1nc(=O)n(C)c2ccc(C#N)nc12 (stereo partly drawn) [Example 264, 4-((2S,5R)-4-(1-(4-(1-cyanocyclopropyl)phenyl)ethyl)-2,5-diethylpiperazin-1-yl)-1-methyl-2-oxo-1,2-dihydropyrido[3,2-d]pyrimidine-6-carbonitrile], the pIC50 (human DGKζ; [4]) was 5.93 and the pIC50 (human DGKα; [5]) was 6.12.
CCC(C1CCC(F)(F)CC1)N1C[C@H](C)N(c2nc(=O)n(C)c3ccc(C#N)nc23)C[C@H]1C (stereo partly drawn) [Example 459, 4-((2S,5R)-4-(1-(4,4-difluorocyclohexyl)propyl)-2,5-dimethylpiperazin-1-yl)-1-methyl-2-oxo-1,2-dihydropyrido[3,2-d]pyrimidine-6-carbonitrile] was tested, and the pIC50 (human DGKζ; [2]) was 4.62 and the pIC50 (human DGKα; [3]) was 4.53.
CC[C@@H]1CN(c2nc(=O)n(C)c3ccc(C#N)nc23)[C@@H](C)CN1Cc1ccc2c(c1)OC(F)(F)O2 [Example 55, 4-((2S,5R)-((2,2-difluorobenzo[d][1,3]dioxol-5-yl)methyl)-5-ethyl-2-methylpiperazin-1-yl)-1-methyl-2-oxo-1,2-dihydropyrido[3,2-d]pyrimidine-6-carbonitrile] showed a pEC50 [1, 7] of 6.10.
CC[C@H]1CN(C(C)c2ccc(OC(F)(F)F)cc2F)[C@H](CC)CN1c1nc(=O)n(C)c2ccc(C#N)nc12 (single isomer, unassigned) [Example 39] gave a pEC50 [1, 8] of 5.56 and a pIC50 (human DGKζ; [4]) of 6.11.
For C[C@@H]1CN(c2nc(=O)n(C)c3ccc(C#N)nc23)[C@@H](C)CN1C(c1ccc(F)cc1)c1ccc(C(F)(F)F)cn1 (stereo in doubt) [Example 126], the pEC50 [1, 7] was 6.17.
Compound CC[C@H]1CN(C(C)c2ccc(C(F)(F)F)cc2)[C@H](CC)CN1c1nc(=O)n(C)c2ccc(OCCN(C)C)nc12 (stereo partly drawn) [Example 432, 4-((2S,5R)-2,5-diethyl-4-(1-(4-(trifluoromethyl)phenyl)ethyl)piperazin-1-yl)-6-(2-(dimethylamino)ethoxy)-1-methylpyrido[3,2-d]pyrimidin-2(1H)-one] has a pEC50 ([1]; human whole blood, anti-CD3 plus anti-CD28 stimulation, 24 hours, read-out: IFN-γ Whole Blood EC50) of 4.70 and a pIC50 (human DGKζ; [2]) of 4.38.
With CCCC(c1ccc(C(F)(F)F)cc1)N1C[C@H](CC)N(c2nc(=O)n(C)c3ccc(C#N)nc23)C[C@H]1CC (stereo partly drawn) [Example 244, 4-((2S,5R)-2,5-Diethyl-4-(1-(4-(trifluoromethyl)phenyl)butyl)piperazin-1-yl)-1-methyl-2-oxo-1,2-dihydropyrido[3,2-d]pyrimidine-6-carbonitrile] the pEC50 [1, 8] was 4.88.
With CCC(c1ccc(C(F)(F)F)cc1)N1C[C@H](CC)N(c2nc(=O)n(C)c3ccc(C#N)nc23)C[C@H]1CC (single isomer, unassigned) [Example 5] the pIC50 (human DGKα; [5]) was 7.19.
Compound CC[C@@H]1CN(c2nc(=O)n(C)c3ccc(C#N)nc23)[C@@H](C)CN1C(c1ccc(F)cc1)c1cc(C2CC2)on1 (single isomer, unassigned) [Example 102] has a pIC50 (human DGKζ; [4]) of 7.03.
With CC[C@@H]1CN(c2nc(=O)n(C)c3ccc(C#N)nc23)[C@@H](C)CN1C(C)c1ccc(C(F)(F)F)cc1 (single isomer, unassigned) [Example 7] the pIC50 (human DGKα; [5]) was 6.74.
CCOc1ccc2c(n1)c(N1C[C@@H](CC)N(C(C)c3ccc(C(F)(F)F)cc3)C[C@@H]1CC)nc(=O)n2C (stereo partly drawn) [Example 429, 4-((2S,5R)-2,5-diethyl-4-(1-(4-(trifluoromethyl)phenyl)ethyl)piperazin-1-yl)-6-ethoxy-1-methylpyrido[3,2-d]pyrimidin-2(1H)-one] gave a pEC50 [1, 6] of 4.70 and a pIC50 (human DGKζ; [2]) of 4.00.
Compound CC[C@H]1CN(C(C)c2ccc(N3CCCC3=O)cc2)[C@H](CC)CN1c1nc(=O)n(C)c2ccc(C#N)nc12 (stereo partly drawn) [Example 231, 4-((2S,5R)-2,5-diethyl-4-(1-(4-(2-oxopyrrolidin-1-yl)phenyl)ethyl)piperazin-1-yl)-1-methyl-2-oxo-1,2-dihydropyrido[3,2-d]pyrimidine-6-carbonitrile] has a pEC50 [1, 8] of 5.01.
